According to patent publication US20200299671A1, “IMMOBILIZED MULTI-ENZYMATIC HALOGENATION SYSTEM” (priority 2019, published 2020):

Key:
PltM [1] = assay: Cell-based activity assay of PltM (Assay 3), wild-type PltM; set-up: species or system E. coli BL21 (DE3); details: cells expressing wild-type PltM; 1 added to culture
Description: (§1) E. coli BL21 (DE3) cells were transformed with ppltM-pET28a, ppltMK87A-pET28a, ppltML111Y-pET28a, ppltMS404Y-pET28a, and ppltA-pET28a. The ppltA-pET28a plasmid overexpressing the halogenase PltA whose substrate is pyrrolyl-S-PltL (a peptidyl carrier protein-linked pyrrole) was used as a negative control. Five colonies from each transformant were cultured in 2×500 mL of LB medium (for ppltM-pET28a, ppltML111Y-pET28a, and ppltMS404Y-pET28a) and 1×500 mL of LB medium (for ppltMK87A-pET28a and ppltA-pET28a) with 50 μg/mL kanamycin at 37° C. and 200 rpm until attenuance of 0.2 at 600 nm. The cultures were then moved to 25° C. until attenuance of 0.5. Protein expression was induced by adding 0.2 mM IPTG to all […] flasks, and the cultures were incubated with shaking for 1 h. 12.5 μg/mL of compound 1 was added to 1×500 mL of LB medium containing ppltM-pET28a, ppltMK87A-pET28a, ppltML111Y-pET28a, ppltMS404Y-pET28a, and ppltA-pET28a. Compound 1 was not added to the three remaining flasks (negative controls). After additional incubation for 20 h, the cells were pelleted at 5,000 g for 10 min, and the supernatant was collected. The supernatant was extracted with EtOAc (3×330 mL), which was dried in vacuo. […]
(§2) The halogenation reaction products were analyzed by HPLC or LC-MS by injecting 10 μL of each sample. […]
(§3) For HPLC analysis, the molecules were observed by absorbance at λ=275 nm as described above. […]

PltA = target: T1, PltA (Pseudomonas fluorescens, UniProt Q4KCZ0); assay: Cell-based activity assay (Assay 3), PltA negative control; set-up: species or system E. coli BL21 (DE3); details: cultures expressing PltA (negative control)
T1 construct: expressed in transfected cells; host or cells: E. coli BL21 (DE3)
T1 sequence (Q4KCZ0 whole entry): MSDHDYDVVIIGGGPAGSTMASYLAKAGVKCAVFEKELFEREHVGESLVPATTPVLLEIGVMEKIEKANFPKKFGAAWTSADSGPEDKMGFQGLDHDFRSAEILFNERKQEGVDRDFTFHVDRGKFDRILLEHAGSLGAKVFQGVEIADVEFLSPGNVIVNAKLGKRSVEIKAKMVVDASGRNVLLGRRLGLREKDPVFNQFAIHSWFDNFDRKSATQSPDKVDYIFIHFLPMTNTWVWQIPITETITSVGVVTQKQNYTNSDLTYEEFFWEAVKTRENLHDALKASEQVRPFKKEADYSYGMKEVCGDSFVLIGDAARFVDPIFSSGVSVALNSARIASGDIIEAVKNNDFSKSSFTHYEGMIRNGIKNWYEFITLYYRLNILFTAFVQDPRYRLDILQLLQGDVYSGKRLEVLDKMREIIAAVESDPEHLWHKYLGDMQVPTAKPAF
Description: as §1, §2, §3

PltM [2] = target: PltM (Pseudomonas protegens, UniProt Q4KCZ3); assay: In vitro PltM halogenation assay with a single halide salt, substrate profile (Assay 1a-1d), LC-MS; type: biochemical
Chain of PltM (Pseudomonas protegens, UniProt Q4KCZ3) (Q4KCZ3 entry or part of it): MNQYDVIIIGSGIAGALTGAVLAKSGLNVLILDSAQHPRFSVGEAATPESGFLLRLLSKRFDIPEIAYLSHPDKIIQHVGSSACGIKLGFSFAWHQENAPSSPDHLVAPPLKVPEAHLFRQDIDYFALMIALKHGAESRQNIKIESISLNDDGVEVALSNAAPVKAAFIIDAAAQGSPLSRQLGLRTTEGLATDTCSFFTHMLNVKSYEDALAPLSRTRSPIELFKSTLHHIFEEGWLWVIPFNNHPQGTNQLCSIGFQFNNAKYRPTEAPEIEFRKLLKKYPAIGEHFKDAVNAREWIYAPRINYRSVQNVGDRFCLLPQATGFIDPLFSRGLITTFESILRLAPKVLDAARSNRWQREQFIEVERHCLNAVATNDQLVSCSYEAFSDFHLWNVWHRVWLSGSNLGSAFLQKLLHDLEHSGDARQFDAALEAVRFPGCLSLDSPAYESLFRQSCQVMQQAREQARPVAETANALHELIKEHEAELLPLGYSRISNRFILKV
Description: The halogenation assays were carried out similarly to a recently described procedure. For substrate profile determination (Assay 1), 100 μL reactions were carried out in 30 mM sodium phosphate pH 7.4. As a halide source, 200 mM of either NaF (Assay 1a), NaCl (Assay 1b), NaBr (Assay 1c), or NaI (Assay 1d) was used. To ensure that PltM is incapable of fluorinating, an additional 200 μL reaction with 300 mM NaF was run. A 200 μL reaction with 400 mM NaBr was also run to ensure no additional bromination reaction occurred. Each reaction also contained a specified substrate (0.5 mM), FAD (0.2 mM), NADPH (5 mM), PltM (5.5 μM), and SsuE (5.0 μM). The reactions were initiated by adding NADPH under N2. The reaction tubes were tightly closed to avoid contact with air. The reaction mixtures were incubated at 25° C. for 3 h prior to extraction with EtOAc (4×100 μL). The organic layer was dried by a gentle flow of air, and the residue was dissolved in MeOH to prepare 1-10 μg/mL samples for LC-MS analysis.
The halogenation reaction products were analyzed by HPLC or LC-MS by injecting 10 μL of each sample. The compounds were separated by Reversed-phase HPLC at the flow rate of 0.2 mL/min by using the following program: eluent A=H2O; eluent B=MeCN; gradient=2% B for 5 min, increase to 100% B over a 30 min period, stay at 100% B for 9 min, decrease to 2% B over a 1 min period, and re-equilibrate the column at 2% B for 30 min.
For HPLC analysis, the molecules were observed by absorbance at λ=275 nm as described above. As necessary, the following mass spectrometer was operated in negative and positive modes with the following parameters: For negative mode, mass range, 80-600 m/z in profile mode; temperature, 550° C. and ion spray voltage floating, −4500 V, and for positive mode, mass range, 80-600 m/z in profile mode; temperature, 550° C. and ion spray voltage floating, 4500 V. The presence of each compound was analyzed by extracted ion chromatograph (XIC) with the expected mass ±0.05 Da for Assay 1 and Assay 2 and ±0.005 Da for Assay 3 (FIGS. 2A-C, 8-13, and 17-37; Tables 3-4 and 7).

Oc1cc(O)cc(O)c1 [Compound 1, phloroglucinol]
halogenation in fermentation culture (PltM [1]): generated mono- and dichlorinated 1
halogenation in fermentation culture (PltA): No halogenated product was observed
bromination by PltM (products identified by LC-MS) (PltM [2]; NaBr as halide source (Assay 1c)): only mono-halogenation
chlorination by PltM (products identified by LC-MS) (PltM [2]; NaCl as halide source (Assay 1b)): Mono- and dihalogenation
fluorination by PltM (products identified by LC-MS) (PltM [2]; NaF as halide source (Assay 1a)): not fluorinated
iodination by PltM (products identified by LC-MS) (PltM [2]; NaI as halide source (Assay 1d)): Mono- and dihalogenation
